Measurements from patent US20140079778A1, “Pharmaceutical Formulations Including An Amine Compound” (AstraZeneca UK Limited, priority 2011, published 2014).
Read-outs that look alike come from different tables or passages of the source.

Columns and labels:
[1] = Example 6: NFA of saxagliptin in saxagliptin/Opadry II films with amino acids (HPLC); format: physicochemical; details: for % NFA (as a % of saxagliptin peak): Saxagliptin/Opadry II films, amino acid 2% w/w in dispersion, sealed vials 60° C. five days, control without amine 2.63
[2] = Saxagliptin Hydrochloride/Opadry II films, amino acid 2% w/w in dispersion, 60° C. five days; control without amine 2.73
[3] = format: physicochemical; details: Saxagliptin Hydrochloride/Opadry II films, amine 2% w/w in dispersion, 60° C. five days; control without amine 2.73
[4] = Example 4: NFA of saxagliptin in saxagliptin/Opadry II films with amine compounds (HPLC); format: physicochemical; details: amine 2% w/w in dispersion, sealed vials 60° C. five days, control without amine 2.63

Row | SMILES | % NFA (as a % of saxagliptin peak) [3] [%] | % NFA (as a % of saxagliptin peak) [4] [%] | protecting saxagliptin from reaction with formyl species (rank among amino acids) ([1]; saxagliptin and saxagliptin hydrochloride Opadry II films) | % NFA (as a % of saxagliptin peak) [1] [%] | extraneous peaks in the chromatogram ([1]; saxagliptin and saxagliptin hydrochloride Opadry II films, HPLC) | % NFA (as a % of saxagliptin peak) [2] [%]
1 | N=C(N)NCCC[C@H](N)C(=O)O [Arginine, arginine] | – | – | – | 0 | formation of extraneous unidentified peaks | 0
2 | OCCNCCO [Diethanolamine, diethanolamine] | 0.62 | 3.61 | – | – | – | –
3 | N[C@@H](Cc1c[nH]cn1)C(=O)O [Histidine, histidine] | – | – | – | 1.68 | – | –
4 | NCCCC[C@H](N)C(=O)O [Lysine, lysine] | – | – | – | 2.84 | – | 2.08

Continued, in another order:

Row | % NFA (as a % of saxagliptin peak) [3] [%] | % NFA (as a % of saxagliptin peak) [4] [%] | protecting saxagliptin from reaction with formyl species (rank among amino acids) ([1]; saxagliptin and saxagliptin hydrochloride Opadry II films) | SMILES | % NFA (as a % of saxagliptin peak) [1] [%] | extraneous peaks in the chromatogram ([1]; saxagliptin and saxagliptin hydrochloride Opadry II films, HPLC) | % NFA (as a % of saxagliptin peak) [2] [%]
5 | 0 | 0 | – | NCCO [Ethanolamine, ethanolamine] | – | – | –
6 | – | – | most potent | NCC(=O)O [Glycine, glycine] | 0 | – | 0
